Data taken from patent US20070072897A1, “Phenylaminopropanol derivatives and methods of their use” (Wyeth, priority 2005, published 2007).
Structures can show the parent of a compound that is named as a salt.

Tests used:
[1] = target: T1, human hNET (Homo sapiens, UniProt P23975); experiment: Norepinephrine (NE) uptake assay in MDCK-Net6 cells; assay type: cell-based; conditions: [3H]NE uptake; for inhibition at 1 µM: MDCK-Net6 cells, read-out: hNET Percentage inhibition at 1 μM; for EC50: MDCK-Net6 cells stably transfected with hNET
T1 construct: expressed in transfected cells; host or cells: MDCK (MDCK-Net6)
Protocol: Cells were plated at 300,000/T75 flask and cells were split twice weekly. […] Cells were plated at 250,000 cells/T75 flask and split twice weekly.
Norepinephrine (NE) Uptake Assay
On day 1, cells were plated at 3,000 cells/well in growth medium and maintained in a cell incubator (37° C., 5% CO2). On day 2, growth medium was replaced with 200 μl of assay buffer (25 mM HEPES; 120 mM NaCl; 5 mM KCl; 2.5 mM CaCl2; 1.2 mM MgSO4; 2 mg/ml glucose (pH 7.4, 37° C.)) containing 0.2 mg/ml ascorbic acid and 10 μM pargyline. Plates containing cells with 200 μl of assay buffer were equilibrated for 10 minutes at 37° C. prior to addition of compounds. A stock solution of desipramine was prepared in DMSO (10 mM) and delivered to triplicate wells containing cells for a final test concentration of 1 μM. Data from these wells were used to define non-specific NE uptake (minimum NE uptake). Test compounds were prepared in DMSO (10 mM) and diluted in assay buffer according to test range (1 to 10,000 nM). Twenty-five microliters of assay buffer (maximum NE uptake) or test compound were added directly to triplicate wells containing cells in 200 μl of assay buffer. The cells in assay buffer with test compounds were incubated for 20 minutes at 37° C. […] The reaction was terminated by decanting the supernatant from the plate. The plates containing cells were washed twice with 200 μl assay buffer (37° C.) to remove free radioligand. The plates were then inverted, left to dry for 2 minutes, then reinverted and air-dried for an additional 10 minutes. […] After cell lysis, 75 μl of scintillation cocktail was added to each well and the plates were sealed with film tape. The plates were returned to the shake table and vigorously shaken for a minimum of 10 minutes to ensure adequate partitioning of organic and aqueous solutions. The plates were counted in a Wallac Microbeta counter (PerkinElmer) to collect the raw cpm data.
For each experiment, a data stream of cpm values collected from the Wallac Microbeta counter was downloaded to a Microsoft Excel statistical application program. Calculations of EC50 values were made using the transformed-both-sides logistic dose response program written by Wyeth Biometrics Department.

[2] = target: T2, human 5-HT2A receptor (Homo sapiens, UniProt P28223); experiment: 5-HT2A FLIPR assay (calcium response to DOI) in CHO cells; assay type: cell-based; conditions: for IC50: antagonist inhibition of 3 nM DOI stimulation, CHO cells, FLIPR; for inhibition at 1 µM: CHO, read-out: 5-HT2A Percentage inhibition at 1 μM
T2 construct: expressed in transfected cells; host or cells: CHO
Protocol: Cells are washed with PBS without Ca^2+ and 3 mL Trypsin is added to dissociate cells. After 3 minute incubation, 7 mL Trypsin Neutralizing Solution is added. Cells are then aspirated from flask and mixed in a 50 mL conical tube. 10 μL sample is used to count cells on a hemacytometer. […] Two 96-well drug plates are prepared for each cell plate. Plate 1 will contain compounds to be tested and plate 2 will contain the agonist DOI (3 nM) to activate a calcium response. Specific details of compound preparation are listed below. […] Outside wells are not used due to an edge effect seen in these cells. The reference compounds DOI and 5-HT are used as standard 5HT agonists. […] Standards for plate one are Vehicle, 1 μM DOI, and 3 nM MDL. […] On the day of the assay, test compound solutions of appropriate concentrations are diluted in assay buffer as described for single concentration testing. This procedure is followed to ensure that the solvent concentration is consistent across dilutions. The typical concentration testing range of compounds is 10^−10—10^−5 M in half log or full log increments. A 10 μM DOI stock is diluted to 60 nM and added to the respective wells. The pipeting station of the FLIPR will make an additional 20-fold dilution for a final concentration of 3 nM. Standards for this plate include Vehicle and 3 nM DOI. Contents of dye vial (Molecular Devices #R8090) are dissolved in 100 mL of 1×HBSS supplemented with 20 mM HEPES. Aliquots can be frozen at −20° C. for up to one week for future use. On the day of assay, dye is thawed and diluted to half concentration. […] Cells are allowed to adhere for 24 hours in 96-well plates. […] Cell, compound and DOI plates are loaded into the FLIPR machine. The baseline fluorescence level is read once every second for 1 minute. Compound (10 μL) is transferred from the compound plate to the cells and the fluorescence level recorded every 6 seconds for 2 minutes to determine any agonist activity. Baseline fluorescence is recorded again every second for 10 seconds. For antagonist determination, 10 μL of 3 nM DOI is transferred from the DOI plate to the cells and the fluorescence level recorded every 6 seconds for 5 minutes. The pipetting unit of the FLIPR machine completes all transfers. […] The data are log transformed prior to analysis.

T1 sequence (P23975 whole entry): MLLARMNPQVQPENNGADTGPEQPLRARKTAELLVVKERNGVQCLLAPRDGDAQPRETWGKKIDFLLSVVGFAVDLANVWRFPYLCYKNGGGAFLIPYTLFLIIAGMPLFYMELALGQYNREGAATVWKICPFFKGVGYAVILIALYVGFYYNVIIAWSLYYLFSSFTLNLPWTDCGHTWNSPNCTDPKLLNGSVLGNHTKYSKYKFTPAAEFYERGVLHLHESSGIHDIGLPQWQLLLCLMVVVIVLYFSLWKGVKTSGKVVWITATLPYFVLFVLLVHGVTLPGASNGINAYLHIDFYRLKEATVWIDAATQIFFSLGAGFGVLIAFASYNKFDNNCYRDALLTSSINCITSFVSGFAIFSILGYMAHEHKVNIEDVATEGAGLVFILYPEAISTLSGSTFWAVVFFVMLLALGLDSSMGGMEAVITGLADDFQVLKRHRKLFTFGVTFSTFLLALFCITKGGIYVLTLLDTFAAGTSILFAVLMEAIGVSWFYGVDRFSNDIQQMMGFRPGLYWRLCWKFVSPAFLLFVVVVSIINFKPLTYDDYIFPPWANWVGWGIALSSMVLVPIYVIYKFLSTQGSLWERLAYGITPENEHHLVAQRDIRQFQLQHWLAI
T2 sequence (P28223 whole entry): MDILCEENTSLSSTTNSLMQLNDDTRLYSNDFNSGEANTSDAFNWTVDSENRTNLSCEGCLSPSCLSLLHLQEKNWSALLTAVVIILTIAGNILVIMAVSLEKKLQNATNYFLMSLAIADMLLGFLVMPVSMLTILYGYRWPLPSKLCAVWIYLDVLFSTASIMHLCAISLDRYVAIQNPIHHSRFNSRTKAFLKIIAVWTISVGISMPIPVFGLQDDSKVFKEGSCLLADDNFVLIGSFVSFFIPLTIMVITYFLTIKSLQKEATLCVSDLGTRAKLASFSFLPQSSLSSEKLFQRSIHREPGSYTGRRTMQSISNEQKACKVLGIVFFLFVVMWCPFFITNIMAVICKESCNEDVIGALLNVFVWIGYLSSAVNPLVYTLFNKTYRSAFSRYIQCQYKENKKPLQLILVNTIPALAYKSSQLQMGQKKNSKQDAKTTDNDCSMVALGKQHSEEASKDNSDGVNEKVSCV

CNC[C@@H](O)[C@H](c1ccccc1)n1ccc2cccc(OCc3ccccc3)c21 [Example 4, (1S,2R)-1-[7-(benzyloxy)-1H-indol-1-yl]-3-(methylamino)-1-phenylpropan-2-ol hydrochloride]
inhibition at 1 µM [1]: 20%
IC50 [2]: 1470 nM

CNC[C@@H](O)[C@H](c1ccccc1)n1ccc2cc(NC(=O)c3ccc(C)c(Cl)c3)ccc21 [Example 71, 3-chloro-N-{1-[(1S,2R)-2-hydroxy-3-(methylamino)-1-phenylpropyl]-1H-indol-5-yl}-4-methylbenzamide hydrochloride]
EC50 [1]: 92 nM
inhibition at 1 µM [2]: 44%

CNC[C@@H](O)[C@H](c1ccccc1)n1ccc2cc(OCc3cccc(Cl)c3)ccc21 [Example 9, (1S,2R)-1-{5-[(3-chlorobenzyl)oxy]-1H-indol-1-yl}-3-(methylamino)-1-phenylpropan-2-ol hydrochloride]
EC50 [1]: 89 nM
inhibition at 1 µM [2]: 39%

CNC[C@@H](O)[C@H](c1ccccc1)n1ccc2cc(OCc3ccc(OC)cc3)ccc21 [Example 7, (1S,2R)-1-{5-[(4-methoxybenzyl)oxy]-1H-indol-1-yl}-3-(methylamino)-1-phenylpropan-2-ol hydrochloride]
EC50 [1]: 32 nM
IC50 [2]: 281 nM

CNC[C@@H](O)[C@H](c1ccccc1)n1ccc2cc(C#Cc3ccccc3)ccc21 [Example 93, (1S,2R)-3-(methylamino)-1-phenyl-1-[5-(phenylethynyl)-1H-indol-1-yl]propan-2-ol hydrochloride]
EC50 [1]: 287 nM
inhibition at 1 µM [2]: 36%

CNC[C@@H](O)[C@H](c1ccccc1)n1ccc2cc(NC(=O)c3ccccc3)ccc21 [Example 75, N-{1-[(1S,2R)-2-Hydroxy-3-(methylamino)-1-phenylpropyl]-1H-indol-5-yl}benzamide hydrochloride]
EC50 [1]: 299 nM
inhibition at 1 µM [2]: 34%

CNC[C@@H](O)[C@H](c1ccccc1)n1ccc2ccc(Oc3ccccc3)cc21 [Example 80, (1S,2R)-3-(methylamino)-1-(6-phenoxy-1H-indol-1-yl)-1-phenylpropan-2-ol hydrochloride]
inhibition at 1 µM [1]: 12%
inhibition at 1 µM [2]: 32%

CNC[C@@H](O)[C@H](c1ccccc1)n1ccc2c(Oc3ccccc3)cccc21 [Example 20, (1S,2R)-3-(methylamino)-1-[4-(phenoxy)-1H-indol-1-yl]-1-phenylpropan-2-ol hydrochloride]
EC50 [1]: 227 nM
inhibition at 1 µM [2]: 30%

CNC[C@@H](O)[C@H](c1ccccc1)N1C(=O)C2(CCCCC2)c2ccc(Cl)cc21 [Example 28, 6′-Chloro-1′-[(1S,2R)-2-hydroxy-3-(methylamino)-1-phenylpropyl]spiro[cyclohexane-1,3′-indol]-2′(1′H)-one hydrochloride]
EC50 [1]: 448 nM
IC50 [2]: 213 nM

CNC[C@@H](O)[C@H](c1ccccc1)n1ccc2cc(OCc3ccc(Cl)cc3)ccc21 [Example 10, (1S,2R)-1-{5-[(4-chlorobenzyl)oxy]-1H-indol-1-yl}-3-(methylamino)-1-phenylpropan-2-ol hydrochloride]
EC50 [1]: 67 nM
IC50 [2]: 712 nM

O[C@H](CN1CCCCC1)[C@H](c1ccccc1)n1ccc2cc(OCc3ccccc3)ccc21 [Example 90, (1S,2R)-1-[5-(benzyloxy)-1H-indol-1-yl]-1-phenyl-3-piperidin-1-ylpropan-2-ol hydrochloride]
inhibition at 1 µM [1]: 12%
inhibition at 1 µM [2]: 25%

O=C1N([C@@H](c2ccccc2)[C@H](O)CN2CCOCC2)c2ccc(F)cc2C12CCCCC2 [Example 104, 5′-fluoro-1′-[(1S,2R)-2-hydroxy-3-morpholin-4-yl-1-phenylpropyl]spiro[cyclohexane-1,3′-indol]-2′(1′H)-one hydrochloride]
inhibition at 1 µM [1]: 13%
inhibition at 1 µM [2]: 22%

CNC[C@@H](O)[C@H](c1ccccc1)N1C(=O)C2(CCCCC2)c2cc(OC)ccc21 [Example 105, 1′-[(1S,2R)-2-hydroxy-3-(methylamino)-1-phenylpropyl]-5′-methoxyspiro[cyclohexane-1,3′-indol]-2′(1′H)-one hydrochloride]
EC50 [1]: 81 nM
inhibition at 1 µM [2]: 37%

CNC[C@@H](O)[C@H](c1ccccc1)n1ccc2cccc(Oc3ccccc3)c21 [Example 81, (1S,2R)-3-(methylamino)-1-(7-phenoxy-1H-indol-1-yl)-1-phenylpropan-2-ol hydrochloride]
EC50 [1]: 1020 nM
IC50 [2]: 372 nM

CNC[C@@H](O)[C@H](c1ccccc1)n1ccc2c(-c3ccccc3)cccc21 [Example 21, (1S,2R)-3-(methylamino)-1-phenyl-1-(4-phenyl-1H-indol-1-yl)propan-2-ol hydrochloride]
inhibition at 1 µM [1]: 56%
inhibition at 1 µM [2]: 27%

NC[C@@H](O)[C@H](c1ccccc1)N1C(=O)C2(CCCCC2)c2cc(F)ccc21 [Example 99, 1′-[(1S,2R)-3-amino-2-hydroxy-1-phenylpropyl]-5′-fluorospiro[cyclohexane-1,3′-indol]-2′(1′H)-one hydrochloride]
inhibition at 1 µM [1]: 11%
inhibition at 1 µM [2]: 7%

CNC[C@@H](O)[C@H](c1ccccc1)N1CC(C(C)C)c2ccccc21 (stereo partly drawn) [Example 60, (1S,2R)-1-(3-isopropyl-2,3-dihydro-1H-indol-1-yl)-3-(methylamino)-1-phenylpropan-2-ol hydrochloride]
EC50 [1]: 67 nM

CNC[C@@H](O)[C@H](c1cccc(F)c1)N1C(=O)C(C)(C)c2cc(F)cc(F)c21 [Example 63, 5,7-difluoro-1-[(1S,2R)-1-(3-fluorophenyl)-2-hydroxy-3-(methylamino)propyl]-3,3-dimethyl-1,3-dihydro-2H-indol-2-one hydrochloride]
EC50 [1]: 51 nM

CNC[C@@H](O)[C@H](c1cc(F)cc(Cl)c1)N1CCc2ccccc21 [Example 113, (1S,2R)-1-(3-chloro-5-fluorophenyl)-1-(2,3-dihydro-1H-indol-1-yl)-3-(methylamino)propan-2-ol hydrochloride]
EC50 [1]: 33 nM

CNC[C@@H](O)[C@H](c1ccccc1)n1ccc2cc(C)nc(Cl)c21 [Example 44, (1S,2R)-1-(7-chloro-5-methyl-1H-pyrrolo[2,3-c]pyridin-1-yl)-3-(methylamino)-1-phenylpropan-2-ol hydrochloride]
EC50 [1]: 416 nM

CNC[C@@H](O)[C@H](c1cccc(F)c1)n1cc(-c2ccc(Cl)cc2Cl)c2ccccc21 [Example 41, (1S,2R)-1-[3-(2,4-dichlorophenyl)-1H-indol-1-yl]-1-(3-fluorophenyl)-3-(methylamino)propan-2-ol hydrochloride]
EC50 [1]: 193 nM

CNC[C@@H](O)[C@H](c1cccc(F)c1)N1C(=O)C(C)(C)c2ccc(F)cc21 [Example 118, 6-fluoro-1-[(1S,2R)-1-(3-fluorophenyl)-2-hydroxy-3-(methylamino)propyl]-3,3-dimethyl-1,3-dihydro-2H-indol-2-one hydrochloride]
EC50 [1]: 40 nM
